Like-named read-outs stand apart in the source and are kept apart here.
How the values were obtained:
NCI-H226 = experiment: SRB 48 h growth assay, Non-small Cell Lung NCI-H226; format: cell-based, human
UACC-257 = experiment: SRB 48 h growth assay, Melanoma UACC-257; format: cell-based, human; conditions: UACC-257, Melanoma
SNB-19 = experiment: SRB 48 h growth assay, CNS SNB-19; format: cell-based, human; conditions: SNB-19, CNS; for CC50 / GI50: Homo sapiens; for CC50: read-out: Log10 LC50 (converted)
[1] = tested on: six CNS cancer cell line (SF-268, SF-295, SF-539, SNB-19, SNB-75 and U251); experiment: in vitro anticancer activity, CNS panel; format: cell-based; conditions: Homo sapiens; six CNS cancer cell lines, exposure at least 48 h; read-out: GI50, range over panel
NCI/ADR-RES = experiment: SRB 48 h growth assay, Ovarian NCI/ADR-RES; format: cell-based, human; conditions: for GI50 / CC50: Homo sapiens; for CC50: read-out: Log10 LC50 (converted)
HS578T = experiment: SRB 48 h growth assay, Breast HS578T; format: cell-based, human; conditions: for GI50 / CC50: Homo sapiens, Hs-578T; for CC50: read-out: Log10 LC50 (converted)
[2] = tested on: six leukemia cancer cell lines (CCRF-CEM, HL-60, K-562, MOLT-4, SR and RPMI-8226); experiment: in vitro anticancer activity, leukemia panel; format: cell-based; conditions: Homo sapiens, exposure at least 48 h, read-out: GI50, range over panel
NCI-H23 = experiment: SRB 48 h growth assay, Non-small Cell Lung NCI-H23; format: cell-based, human; conditions: for LC50 / GI50: Homo sapiens; for LC50: read-out: Log10 LC50 (converted)
786-0 = experiment: SRB 48 h growth assay, Renal 786-0; format: cell-based, human; conditions: 786-0, Renal
HCT-116 = experiment: SRB 48 h growth assay, Colon HCT-116; format: cell-based, human; conditions: HCT-116, Colon
ACHN = experiment: SRB 48 h growth assay, Renal ACHN; format: cell-based, human
M14 = experiment: SRB 48 h growth assay, Melanoma M14; format: cell-based, human
OVCAR-3 = experiment: SRB 48 h growth assay, Ovarian OVCAR-3; format: cell-based, human; conditions: OVCAR-3, Ovarian
BT-549 = experiment: SRB 48 h growth assay, Breast BT-549; format: cell-based, human; conditions: BT-549, Breast
[3] = in vitro anticancer activity, non-small cell lung panel; format: cell-based; conditions: Homo sapiens; nine non-small cell lung cancer cell lines, exposure at least 48 h; read-out: GI50, range over panel
[4] = tested on: six breast cancer cell line (MCF-7, MDA-MB-231/ATCC, HS 578T, TD-47D, MDA-MB-468 and BT-549); experiment: in vitro anticancer activity, breast panel; format: cell-based; conditions: Homo sapiens; six breast cancer cell lines, exposure at least 48 h; read-out: GI50, range over panel
[5] = tested on: two prostate cancer cell line (PC-3, DU-145); experiment: in vitro anticancer activity, prostate panel; format: cell-based; conditions: Homo sapiens; two prostate cancer cell lines, exposure at least 48 h; read-out: GI50, range over panel
MDA-MB-435 = experiment: SRB 48 h growth assay, Melanoma MDA-MB-435; format: cell-based, human; conditions: MDA-MB-435, Melanoma; for GI50 / CC50: Homo sapiens; for CC50: read-out: Log10 LC50 (converted)
NCI-H522 = experiment: SRB 48 h growth assay, Non-small Cell Lung NCI-H522; format: cell-based, human
MDA-MB-468 = experiment: SRB 48 h growth assay, Breast MDA-MB-468; format: cell-based, human; conditions: MDA-MB-468, Breast
PC-3 = experiment: SRB 48 h growth assay, Prostate PC-3; format: cell-based, human; conditions: PC-3, Prostate; for GI50 / CC50: Homo sapiens; for CC50: read-out: Log10 LC50 (converted)
LOX IMVI = experiment: SRB 48 h growth assay, Melanoma LOX IMVI; format: cell-based, human
A549/ATCC = experiment: SRB 48 h growth assay, Non-small Cell Lung A549/ATCC; format: cell-based, human; conditions: for CC50 / GI50: Homo sapiens; for CC50: read-out: Log10 LC50 (converted)
OVCAR-8 = experiment: SRB 48 h growth assay, Ovarian OVCAR-8; format: cell-based, human; conditions: OVCAR-8, Ovarian; for GI50 / CC50: Homo sapiens; for CC50: read-out: Log10 LC50 (converted)
CCRF-CEM = experiment: SRB 48 h growth assay, Leukemia CCRF-CEM; format: cell-based, human; conditions: for CC50 / GI50: Homo sapiens; for CC50: CCKF-CEM, read-out: Log10 LC50 (converted)
[6] = tested on: seven ovarian cancer cell lines (IGROV1, OVCAR-3, OVCAR-4, OVCAR-5, OVCAR-8, NCI/ADR-RES and SK-OV-3); experiment: in vitro anticancer activity, ovarian panel; format: cell-based; conditions: Homo sapiens, exposure at least 48 h, read-out: GI50, range over panel
SK-OV-3 = experiment: SRB 48 h growth assay, Ovarian SK-OV-3; format: cell-based, human; conditions: SK-OV-3, Ovarian; for GI50 / CC50: Homo sapiens; for CC50: read-out: Log10 LC50 (converted)
[7] = Homo sapiens, read-out: Growth Inhibition GI50
[8] = Homo sapiens, read-out: Log10 GI50 (converted)
[9] = read-out: Growth Inhibition GI50
[10] = read-out: Log10 GI50 (converted)
[11] = Homo sapiens, read-out: Log10 LC50 (converted)

C#Cc1ccc(-n2c(/C=C/c3ccc(Cl)c(F)c3)nc3ncccc3c2=O)cc1 [4g, (E)-2-(4-chloro-3-fluorostyryl)-3-(4-ethynylphenyl)pyrido[2,3-d]pyrimidin-4(3H)-one]
GI50 (NCI-H226; [7]): 350 nM | GI50 (NCI-H226; [8]): 355 nM | GI50 (UACC-257; [7]): 540 nM | GI50 (UACC-257; [8]): 537 nM | CC50 (SNB-19): > 100 µM | GI50 [1]: 340 nM | GI50 (NCI/ADR-RES; [9]): 410 nM | GI50 (NCI/ADR-RES; [10]): 417 nM | CC50 (NCI/ADR-RES): > 100 µM | Log10 TGI50 (HS578T): >−4.00 | GI50 (HS578T; [9]): 410 nM | GI50 (HS578T; [10]): 417 nM | CC50 (HS578T): > 100 µM | GI50 [2]: 250 to 540 nM | LC50 (NCI-H23): > 100 µM | GI50 (786-0; [7]): 360 nM | GI50 (786-0; [8]): 372 nM | GI50 (HCT-116; [7]): 330 nM | GI50 (HCT-116; [8]): 331 nM | GI50 (ACHN; [7]): 390 nM | GI50 (ACHN; [8]): 398 nM | GI50 (M14; [7]): 300 nM | GI50 (M14; [8]): 302 nM | GI50 (OVCAR-3; [7]): 300 nM | GI50 (OVCAR-3; [8]): 302 nM | GI50 (BT-549; [7]): 320 nM | GI50 (BT-549; [8]): 324 nM | GI50 [3]: 200 to 580 nM | GI50 [4]: 240 to 410 nM | GI50 [5]: 340 nM | GI50 (MDA-MB-435; [9]): 190 nM | GI50 (MDA-MB-435; [10]): 195 nM | CC50 (MDA-MB-435): > 100 µM | GI50 (NCI-H522; [7]): 270 nM | GI50 (NCI-H522; [8]): 275 nM | GI50 (MDA-MB-468; [7]): 240 nM | GI50 (MDA-MB-468; [8]): 245 nM | GI50 (PC-3; [9]): 340 nM | GI50 (PC-3; [10]): 347 nM | CC50 (PC-3): > 100 µM | GI50 (LOX IMVI; [7]): 260 nM | GI50 (LOX IMVI; [8]): 263 nM | CC50 (A549/ATCC): > 100 µM | GI50 (OVCAR-8; [9]): 350 nM | GI50 (OVCAR-8; [10]): 355 nM | CC50 (OVCAR-8): > 100 µM | CC50 (CCRF-CEM): > 100 µM | GI50 (CCRF-CEM; [9]): 290 nM | GI50 (CCRF-CEM; [10]): 288 nM | GI50 [6]: 300 to 480 nM | GI50 (SK-OV-3; [9]): 340 nM | GI50 (SK-OV-3; [10]): 347 nM | CC50 (SK-OV-3): > 100 µM

C#Cc1ccc(-n2c(/C=C/c3ccc(C(F)(F)F)cc3)nc3ncccc3c2=O)cc1 [4c, (E)-3-(4-Ethynylphenyl)-2-(4-(trifluoromethyl)styryl)pyrido[2,3-d]pyrimidin-4(3H)-one]
Log10 TGI50 (NCI-H226): −5.39 | GI50 (NCI-H226; [7]): 1990 nM | GI50 (NCI-H226; [8]): 2000 nM | LC50 (NCI-H226; [11]): 8.51 µM | GI50 (UACC-257; [7]): 1560 nM | GI50 (UACC-257; [8]): 1550 nM | CC50 (UACC-257; [11]): 5.62 µM | Log10 TGI50 (UACC-257): −5.53 | GI50 (SNB-19; [9]): 1910 nM | GI50 (SNB-19; [10]): 1910 nM | CC50 (SNB-19): 9.55 µM | Log10 TGI50 (SNB-19): −5.37 | GI50 [1]: 2600 to 3690 nM | Log10 TGI50 (NCI/ADR-RES): −5.16 | GI50 (NCI/ADR-RES; [9]): 2500 nM | GI50 (NCI/ADR-RES; [10]): 2510 nM | CC50 (NCI/ADR-RES): > 100 µM | Log10 TGI50 (HS578T): >−4.00 | GI50 (HS578T; [9]): 3460 nM | GI50 (HS578T; [10]): 3470 nM | CC50 (HS578T): > 100 µM | GI50 [2]: 450 to 2430 nM | Log10 TGI50 (NCI-H23): −4.72 | GI50 (NCI-H23; [9]): 3.9 µM | GI50 (NCI-H23; [10]): 3.89 µM | LC50 (NCI-H23): > 100 µM | Log10 TGI50 (786-0): −5.43 | GI50 (786-0; [7]): 2060 nM | GI50 (786-0; [8]): 2040 nM | CC50 (786-0; [11]): 6.61 µM | Log10 TGI50 (HCT-116): −5.52 | GI50 (HCT-116; [7]): 1640 nM | GI50 (HCT-116; [8]): 1620 nM | CC50 (HCT-116; [11]): 5.62 µM | Log10 TGI50 (ACHN): −5.49 | GI50 (ACHN; [7]): 1710 nM | GI50 (ACHN; [8]): 1700 nM | CC50 (ACHN; [11]): 6.17 µM | Log10 TGI50 (M14): −5.37 | GI50 (M14; [7]): 2070 nM | GI50 (M14; [8]): 2090 nM | CC50 (M14; [11]): 8.71 µM | GI50 (OVCAR-3; [7]): 1670 nM | GI50 (OVCAR-3; [8]): 1660 nM | CC50 (OVCAR-3; [11]): 6.03 µM | Log10 TGI50 (OVCAR-3): −5.50 | Log10 TGI50 (BT-549): −5.47 | GI50 (BT-549; [7]): 1710 nM | GI50 (BT-549; [8]): 1700 nM | CC50 (BT-549; [11]): 6.61 µM | GI50 [3]: 1630 to 7450 nM | GI50 [4]: 960 to 7620 nM | GI50 [5]: 2350 to 7450 nM | GI50 (MDA-MB-435; [9]): 2270 nM | GI50 (MDA-MB-435; [10]): 2290 nM | CC50 (MDA-MB-435): > 100 µM | Log10 TGI50 (MDA-MB-435): −5.19 | Log10 TGI50 (NCI-H522): −5.51 | GI50 (NCI-H522; [7]): 1650 nM | GI50 (NCI-H522; [8]): 1660 nM | CC50 (NCI-H522; [11]): 5.75 µM | GI50 (MDA-MB-468; [7]): 1510 nM | GI50 (MDA-MB-468; [8]): 1510 nM | CC50 (MDA-MB-468; [11]): 8.71 µM | Log10 TGI50 (MDA-MB-468): −5.44 | GI50 (PC-3; [9]): 1960 nM | GI50 (PC-3; [10]): 1950 nM | CC50 (PC-3): > 100 µM | Log10 TGI50 (PC-3): −5.20 | Log10 TGI50 (LOX IMVI): −5.37 | GI50 (LOX IMVI; [7]): 1890 nM | GI50 (LOX IMVI; [8]): 1910 nM | CC50 (LOX IMVI; [11]): 9.77 µM | Log10 TGI50 (A549/ATCC): −5.34 | GI50 (A549/ATCC; [9]): 1830 nM | GI50 (A549/ATCC; [10]): 1820 nM | CC50 (A549/ATCC): > 100 µM | GI50 (OVCAR-8; [9]): 1870 nM | GI50 (OVCAR-8; [10]): 1860 nM | CC50 (OVCAR-8): 31.6 µM | Log10 TGI50 (OVCAR-8): −5.33 | Log10 TGI50 (CCRF-CEM): >−4.00 | CC50 (CCRF-CEM): > 100 µM | GI50 (CCRF-CEM; [9]): 1950 nM | GI50 (CCRF-CEM; [10]): 1950 nM | GI50 [6]: 1950 to 7550 nM | GI50 (SK-OV-3; [9]): 3610 nM | GI50 (SK-OV-3; [10]): 3630 nM | CC50 (SK-OV-3): 53.7 µM | Log10 TGI50 (SK-OV-3): −4.87

Source: patent US9783537B2, “3-(4-ethylnylphenyl) pyridopyrimidinone compounds and process for preparation thereof useful as potential anticancer agents” (Council of Scientific & Industrial Research, priority 2013, dated 2017)
